Here are results for three compounds from patent publication US20090202519A1, “Compositions and methods for treating gram positive bacterial infection in a mammalian subject” (The Scripps Research Institute, priority 2005, published 2009).

In brackets after ≈: the same amount, converted by molar mass. Bounds are passed on as bounds.

In experiment [1] the test system is S. pyogenes. The experiment in a line: microbe, parasite or virus in culture. Conditions: for bacteriostatic and bactericidal activity: S. pyogenes, in vitro; for MBC / MIC: Streptococcus pyogenes; for MBC: read-out: MBC (Minimum Bactericidal Concentration); for MIC: read-out: MIC (Minimum Inhibitory Concentration). The procedure:
(§1) Miller et al., Arch Dermatol 124:209-15, 1988; Wille and Kydonieus, Skin Pharmacol Appl Skin Physiol 16:176-87, 2003. To test the working hypothesis, a series of in vitro experiments were first performed in which the effect of each lipid was measured on the growth of S. pyogenes, S. aureus and E. coli.
(§2) Bacteria. S. aureus Xen8.1 (parental strain 8325-4), S. pyogenes Xen20 (derived from serotype M49, strain 591) and E. coli Xen14 (derived from EPEC WS2572) were obtained from Xenogen (Carnbury, N.J.)

Experiment [2] relates to S. aureus. Nature of the experiment: Minimum inhibitory and bactericidal concentration on S. aureus in vitro. The class given is cell-based, Staphylococcus aureus. The conditions noted are these: for bacteriostatic and bactericidal activity: in vitro. The procedure:
as §1, §2

Experiment [3] deals with Scd1 expression in peritoneal macrophages. The experiment in a line: Scd1 expression by RT-PCR in stimulated peritoneal macrophages. Format: cell-based. The conditions noted are these: wild-type mouse peritoneal macrophages, within 18 hours after stimulation. An excerpt: A. SignalScan analysis of the Scd1 promoter. NF-κB and ISRE (interferon-stimulated regulatory element) are shown. B. RT-PCR detection of Scd1 and β-actin transcripts in skin biopsies of non-infected controls (C57BL/6, lane 1) and Tlr2−/− (lane 4) animals or after infection by S. aureus (lanes 2 and 5) or E. coli (lane 3). PCR products after 30 and 40 cycles are shown. M, size standard. C. RT-PCR detection of Scd1 and β-actin transcripts in controls (0) and MALP-induced peritoneal macrophages isolated from wild-type mice after 2, 4, 8 and 18 h. D. Quantification of the Scd1/β-actin ratio.
Macrophages, which represent an ideal system in which to study TLR signaling, also express the Scd1 gene, as reported recently. Uryu et al., Biochem Biophys Res Commun 303:302-5, 2003. To determine whether isolated macrophages are capable of upregulating Scd1 and to determine the kinetics of the response, peritoneal macrophages isolated from wild-type mice were stimulated with, synthetic macrophage-activating lipopeptide (MALP-2, EMC microcollections GmbH, Germany), a known TLR2 agonist. Takeuchi et al., J Immunol 164:554-7, 2000. […]
Semi-quantitative RT-PCR. […] Hoebe et al., J Endotoxin Res 9:250-5, 2003. hSCD1 and hFADS2 expression SZ95 sebocytes was measured by semi-quantitative RT-PCR using the following oligonucleotides: […]

The test system of experiment [4] is SZ95 sebocytes. Nature of the experiment: SZ95 human sebocytes: IL-6/IL-8 ELISA and SCD1/FADS2 RT-PCR. Format: cell-based. The conditions noted are these: SZ95 cells. The text has this:
To corroborate potential relevance of inducible Scd1 expression in human skin defense against Gram-positive pathogens, the effect of MALP-2 was investigated on the immortalized human sebocyte cell line SZ95. Zouboulis et al., J. Invest Dermatol. 113:1011-1020, 1999. […] These observations were extended by monitoring the expression of the fatty acid desaturase2 (FADS2) gene. FADS2 encodes a protein with enzymatic properties similar to those of SCD1 and was recently shown to be deficient in a patient affected by a severe skin condition manifested by cheilosis, a hyperkeratotic rash over the arms and legs and perineal dermatitis. Williard et al., J. Lipid Res. 42:501-508, 2001.
A. IL-6 production is induced in SZ95 cells after MALP-2 treatment (50 ng/ml). […] B. Quantification of IL-8 in the same conditions as in A. C. RT-PCR detection of SCD1 and FADS2 expression 4 and 18 hours after LPS and MALP-2 stimulation. GAPDH expression was used as control. D. Quantification of the SCD1 and FADS2 signals measured in two independent experiments (+/− s.e.m) after normalization with the GAPDH signal.
Cell culture. SZ95 sebocytes were maintained in HSG-Med (Sebomed, Berlin, Germany) supplemented with 10% heat inactivated FCS, 5 ng/ml human epidermal growth factor, 1 mM CaCl2, 10^−5 M palmitic acid, 50 μg/ml gentamicin for 2, 4, 8 and 18 hours with/without 50 ng/ml MALP-2 or 100 ng/ml LPS and the supernatants were collected for IL6 and IL8 evaluation by ELISA. RNA was isolated from the 4- and 18-hour samples by the RNeasy Midi kit (Qiagen, Hilden, Germany) and purified by the RNase-Free DNase set (Qiagen) for RT-PCR.
Semi-quantitative RT-PCR. Wild-type and Tlr2^−/− mutant mice were depilated and infected by subcutaneous injection of S. aureus or E. coli (5×10^5 […]). After 24 h, the skin of the infected area was dissected and total RNA was extracted by the Trizol (Gibco) method. […] Hoebe et al., J Endotoxin Res 9:250-5, 2003. hSCD1 and hFADS2 expression SZ95 sebocytes was measured by semi-quantitative RT-PCR using the following oligonucleotides: […]

In experiment [5] the test system is S. aureus. Nature of the experiment: S. aureus skin infection in wild-type (C57BL/6) mice, luminescence and wound size. The class given is in vivo, mouse. The procedure: To investigate the physiological relevance of this antimicrobial activity, wild-type mice were inoculated with S. aureus and treated the infected animals by repeated (every two days) subcutaneous injections of palmitoleate (100 μl of a 100 μM solution in DMSO), or DMSO alone at the site of infection. The results of this experiment are illustrated in FIGS. 6A and B. For both groups of mice (n=6 animals), luminescence is expressed as a percentage of the initial inoculum, determined 24 hours after infection. […] As a consequence of improved S. aureus elimination, the diameter of the ulcerative wound (measured at day 9) in lipid-treated animals is one fourth that observed in controls (FIG. 6C).
A. Palmitoleate injection accelerates bacterial clearance in wild-type mice. Luminescence (expressed as a percentage of the initial inoculum) was measured in control (C57BL/6) mice inoculated with S. aureus (at day 0) and treated by vehicle (DMSO) or palmitoleate injections every two days (arrows). […] Histogram showing the size of the lesion measured at day 9 after the infection in control (B6) mice treated with DMSO or palmitoleate. ** indicates P value <0.01. […] F. Size of the lesion (determined at day 12) in infected flk mutants treated with DMSO or palmitoleate. * indicates P value <0.05. […]

Experiment [6] has as its system S. aureus. Nature of the experiment: S. aureus skin infection in flake (flk/flk) mutant mice. The conditions noted are these: flake mutants; 100 μl of 100 μM every two days. Format: in vivo, mouse. The procedure:
However, complete rescue of the phenotype was not achieved by this pharmacological approach.
A. Palmitoleate injection accelerates bacterial clearance in wild-type mice. Luminescence (expressed as a percentage of the initial inoculum) was measured in control (C57BL/6) mice inoculated with S. aureus (at day 0) and treated by vehicle (DMSO) or palmitoleate injections every two days (arrows). B. Picture of control (C57BL/6) mice 9 days after S. aureus infection treated by DMSO (top) or palmitoleate (bottom) injections. C. Histogram showing the size of the lesion measured at day 9 after the infection in control (B6) mice treated with DMSO or palmitoleate. ** indicates P value <0.01. D. Palmitoleate treatment in S. aureus-infected flake mice. The protocol is similar as in A, except that 100 μl injections of a 75 mM solution of palmitoleate were performed. E. Pictures of infected flake mice at day 12 after DMSO (top) or palmitoleate (bottom) treatment. F. Size of the lesion (determined at day 12) in infected flk mutants treated with DMSO or palmitoleate. * indicates P value <0.05.
Skin infection. […] Luminescence was monitored daily with a CCD camera (5 min exposure of the animals) and quantification was done with the IVIS program from Xenogen.

The mark [7] stands for this setting: Staphylococcus aureus, average of 3 experiments.

With `CCCCCCCC/C=C\CCCCCCCC(=O)O` [Oleate, oleic acid], in experiment [1], the “bacteriostatic and bactericidal activity” value was “strong bacteriostatic and bactericidal activity”; the MBC stood at 13.3 µM (≈ 3.76 µg/mL); the MIC worked out at 8.3 µM (≈ 2.34 µg/mL). In addition, in experiment [2] (setting [7]), the MIC is greater than 75 µM. In experiment [2], the “bacteriostatic and bactericidal activity” value was “strong bacteriostatic and bactericidal activity”.

On to MALP-2, for which, in experiment [3], the “increase of Scd1 expression” value is 4 fold. Further, the “SCD1 transcription” value in experiment [4] (4 hours after stimulation) is “up-regulated”. For the same compound, the “FADS2 expression” value in experiment [4] (18 hours after stimulation) is “slightly but specifically induced”. In addition, in experiment [4] (MALP-2 50 ng/ml, LPS 100 ng/ml), the “IL-6 and IL-8 production” value is “increased IL-6 and IL-8 production”.

As to `CCCCCC/C=C\CCCCCCCC(=O)O` [Palmitoleate, palmitoleic acid], in experiment [1], the “bacteriostatic and bactericidal activity” value was “strong bacteriostatic and bactericidal activity”; the MBC stood at 10 µM (≈ 2.54 µg/mL); the MIC came out at 10 µM (≈ 2.54 µg/mL). In experiment [2] (setting [7]), this compound came in with an MBC of 50 µM (≈ 12.7 µg/mL) and an MIC of 36.6 µM (≈ 9.31 µg/mL). The “bacteriostatic and bactericidal activity” value in experiment [2] was “strong bacteriostatic and bactericidal activity”. Also, in experiment [5] (9 days after S. aureus inoculation, s.c. 100 μl of 100 μM in DMSO every two days), the “reduction of luminescence compared to vehicle-treated mice” value is 90%. Moreover, the “diameter of the ulcerative wound relative to controls” value in experiment [5] (measured at day 9, s.c. 100 μl of 100 μM every two days) is listed as “one fourth”. In addition, the “bacterial growth” value in experiment [6] is “marked reduction of bacterial growth between days 1 and 4”.
